17 compounds from patent US20220220115A1, “HETEROCYCLIC COMPOUNDS AND USES THEREOF” (Nuvation Bio Inc., priority 2019, published 2022) can be followed below.

Structures are written as SMILES.

Test [1] addresses T1, WEE1 kinase enzyme (Homo sapiens, UniProt P30291).
T1 construct: purchased Invitrogen, Life Technologies PR7373A
Nature of the test: WEE1 IC50 determination, LanthaScreen Terbium Labeled TR-FRET kinase assay. The class given is biochemical. To be noted: WEE1 enzyme 1 nM, ATP 10 μM. The method, then: IC50 values of compounds against WEE1 kinase enzyme were determined by LanthaScreen™ Terbium Labeled TR-FRET assay. Kinase assays were performed in 1× kinase buffer (#PV6135, Invitrogen, Life Technologies Grand Island, N.Y.) where total reaction volume was 10 μL in low-volume 384-well plates (#4511, Corning). Serially diluted compounds (3-fold) were incubated with WEE1 Enzyme (1 nM) (#PR7373A, Invitrogen, Life Technologies Grand Island, N.Y.) for 10 min, and a mixture of ATP (10 μM) (#A1852, Sigma, St. Louis, Mo.) and fluorescent-PolyGT substrate (200 nM) (#PV3610, Invitrogen, Life Technologies, Grand Island, N.Y.) was added and incubated in dark at room temperature for 1 h. After 1 h, 10 μL stop solution containing Terbium labeled antibody (4 nM) (#PV3529, Invitrogen, Life Technologies Grand Island, N.Y.) and EDTA (#E5134, Sigma, St. Louis, Mo.) (20 mM) in TR-FRET dilution buffer (#PV3574, Invitrogen, Life Technologies, Grand Island, N.Y.) was added. Readings were taken in a Synergy Neo Plate reader (BioTek, Winooski, Vt.) at single excitation of 340 nm and dual emission at 495 nm and 520 nm respectively.
The % activity of test samples was calculated as (Sample−Min)*100/(Max−Min). [Max: DMSO control, complete reaction with enzyme & DMSO and Min: No enzyme & DMSO]. Percent inhibition (100−% activity) was fitted to the “four-parameter logistic model” in XLfit for determination of IC50 values.
In general terms: In TR-FRET formats the signal depends on donor and acceptor labels being close together.

The test system of test [2] is A427 cell line. The test is described as follows: Cytotoxicity assay in A427 cell line (resazurin). Format: cell-based. To be noted: Homo sapiens, A-427, A427 cells, 72 hr incubation, inhibition of proliferation. The method, then:
A427 (HTB-53; ATCC), a lung epithelial cell line, was seeded in medium (MEM, 41090101; Gibco) at a cell count of 1500 cells per 100 μL per well in a 96 well edge plate (167425; ThermoFisher). Cells were allowed to grow at 37° C. for 24 hr in 5% CO2 environment (culture conditions) in a Nuaire incubator (humidified). Serially diluted test compounds (100 μL) within the desired testing concentration ranges were added to the culture plate and the cells were further incubated in culture conditions for 72 hr. The experiment was terminated at the designated incubation time by replacing the medium with 100 μL of 1 mM of resazurin (R7017; Sigma) prepared in culture medium, and the plates were further incubated in culture conditions for 4-6 hr. Fluorescence was recorded using a multimodal plate reader (Biotek Synergy Neo) at an excitation wavelength of 535 nm and emission wavelength of 590 nm to obtain relative fluorescence units. Data were analysed as follows: the background fluorescence (blank containing only medium) value was subtracted from each reading and normalized with the vehicle control (DMSO treated cells) to obtain percent survival/proliferation. Percent survival was subtracted from 100 to get the percent inhibition of proliferation which was used to calculate IC50 values. Potency of compounds in other cell lines (such as A549, As-Pc-1, Panc 10.05, A172, U-87 MG) may be determined in an analogous manner.
In general terms: Alamar Blue is a resazurin reagent that responds to reducing activity.

The test system of test [3] is phospho-CDC2 (Tyr15) in A427 cells. The test is described as follows: Phospho-CDC2 (Tyr15) sandwich ELISA in A427 cells. The class given is cell-based. To be noted: Homo sapiens, A-427, treatment for a specified time (e.g., 24 hr). The method, then: Changes in the levels of phospho-CDCl2 following treatment of cells with test compounds were assessed by enzyme-linked immunosorbent assay (ELISA). A427 cells were plated in 6-well plates and cultured for 24 hr to approximately 80-90% confluency. Medium was replaced, and the cells were treated with the vehicle control or the test compound at several different concentrations. After incubation of treated cells in cell culture conditions for a specified time (e.g., 24 hr), cells were rinsed with ice-cold PBS and lysed in 1× cell lysis buffer containing protease inhibitors and phosphatase inhibitors. The cells were scraped from the plate with a cell scraper after a brief incubation on ice and transferred to a centrifuge tube, and then subjected to three freeze-thaw cycles in liquid nitrogen and a 37° C. water bath for further lysis. The lysates were centrifuged to pellet cell debris (using, for example, a 10 min centrifugation of 2000×g at 4° C.) and the supernatants transferred to fresh tubes on ice. The protein concentrations of the samples were estimated by the Bradford method or equivalent. The ELISA was carried out with the PathScan® Phospho-CDCl2 (Tyr15) Sandwich ELISA Kit (Cat. #7176, Cell Signaling Technology, Danvers, Mass.) according to the manufacturer's instructions.
(In an ELISA, binding on a coated surface is turned into a signal by an enzyme label.)

T1 sequence (P30291 whole entry): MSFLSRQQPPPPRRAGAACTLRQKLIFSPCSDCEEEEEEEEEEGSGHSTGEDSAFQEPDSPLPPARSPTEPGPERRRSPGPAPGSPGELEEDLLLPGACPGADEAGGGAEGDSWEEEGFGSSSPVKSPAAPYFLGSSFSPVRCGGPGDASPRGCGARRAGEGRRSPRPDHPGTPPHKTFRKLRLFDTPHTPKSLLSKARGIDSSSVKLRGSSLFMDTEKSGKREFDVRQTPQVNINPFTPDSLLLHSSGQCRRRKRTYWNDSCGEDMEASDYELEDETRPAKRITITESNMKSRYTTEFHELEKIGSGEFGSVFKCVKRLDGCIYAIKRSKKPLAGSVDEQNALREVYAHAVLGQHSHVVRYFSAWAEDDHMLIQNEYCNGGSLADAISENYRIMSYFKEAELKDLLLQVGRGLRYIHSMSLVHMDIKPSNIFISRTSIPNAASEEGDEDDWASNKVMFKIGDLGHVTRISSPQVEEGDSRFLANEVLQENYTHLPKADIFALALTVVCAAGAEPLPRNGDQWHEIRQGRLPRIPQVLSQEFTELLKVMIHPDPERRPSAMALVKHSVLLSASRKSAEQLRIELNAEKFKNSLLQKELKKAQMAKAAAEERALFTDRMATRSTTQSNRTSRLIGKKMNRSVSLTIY

As usually defined, the IC50 is the midpoint of a concentration-inhibition curve. As for `CCn1c(=O)c2cnc(Nc3ccc4c(c3)CCNC4)nc2n1-c1cccc(C(C)(C)C#N)n1` [Compound No. 1.4, 2-(6-(2-ethyl-3-oxo-6-((1,2,3,4-tetrahydroisoquinolin-6-yl)amino)-2,3-dihydro-1H-pyrazolo[3,4-d]pyrimidin-1-yl)pyridin-2-yl)-2-methylpropanenitrile], the IC50 in test [1] was 3 nM; in test [2] it was 320 nM.

With `CCn1c(=O)c2cnc(Nc3ccc4c(c3)CNCC4)nc2n1-c1nc(C(C)(C)C)cs1` [Compound No. 1.8, 1-(4-(tert-butyl)thiazol-2-yl)-2-ethyl-6-((1,2,3,4-tetrahydroisoquinolin-7-yl)amino)-1,2-dihydro-3H-pyrazolo[3,4-d]pyrimidin-3-one], the results for the IC50 in test [1] and in test [2] were 4 nM and 993 nM, respectively.

Regarding `CC(C)n1c(=O)c2cnc(Nc3ccc4c(c3)CNCC4)nc2n1-c1nc(C(C)(C)C)cs1` [Compound No. 1.2, 1-(4-(tert-butyl)thiazol-2-yl)-2-isopropyl-6-((1,2,3,4-tetrahydroisoquinolin-7-yl)amino)-1,2-dihydro-3H-pyrazolo[3,4-d]pyrimidin-3-one], the figures for the IC50 in test [1] and in test [2] were less than 0.2 nM and 585 nM, respectively.

Take `CC(C)n1c(=O)c2cnc(Nc3ccc4c(c3)CNCC4)nc2n1-c1cccc(C2(CO)CC2)n1` [1.224, 1-(6-(1-(hydroxymethyl)cyclopropyl)pyridin-2-yl)-2-isopropyl-6-((1,2,3,4-tetrahydroisoquinolin-7-yl)amino)-1,2-dihydro-3H-pyrazolo[3,4-d]pyrimidin-3-one]: the figures for the IC50 in test [1], in test [2] and in test [3] were 4 nM, 243 nM and 57 nM, respectively.

For `CC(C)(C)c1csc(-n2c3nc(Nc4ccc5c(c4)CNCC5)ncc3c(=O)n2C2CC2)n1` [Compound No. 1.6, 1-(4-(tert-butyl)thiazol-2-yl)-2-cyclopropyl-6-((1,2,3,4-tetrahydroisoquinolin-7-yl)amino)-1,2-dihydro-3H-pyrazolo[3,4-d]pyrimidin-3-one], the values for the IC50 in test [1], in test [2] and in test [3] were 6 nM, 1140 nM and 1120 nM, respectively.

Regarding `CC(C)(C)c1csc(-n2c3nc(Nc4ccc5c(c4)CCNC5)ncc3c(=O)n2CC(F)(F)F)n1` [Compound No. 1.11, 1-(4-(tert-butyl)thiazol-2-yl)-6-((1,2,3,4-tetrahydroisoquinolin-6-yl)amino)-2-(2,2,2-trifluoroethyl)-1,2-dihydro-3H-pyrazolo[3,4-d]pyrimidin-3-one], the IC50 in test [1] came out at 19 nM; in test [2] it was 1580 nM.

Regarding `CC(C)(C)c1csc(-n2c3nc(Nc4ccc5c(c4)CCNC5)ncc3c(=O)n2C2CC2)n1` [Compound No. 1.5, 1-(4-(tert-butyl)thiazol-2-yl)-2-cyclopropyl-6-((1,2,3,4-tetrahydroisoquinolin-6-yl)amino)-1,2-dihydro-3H-pyrazolo[3,4-d]pyrimidin-3-one], the IC50 came to 18 nM in test [1] and 1270 nM in test [2].

For `CC(C)(CF)c1cccc(-n2c3nc(Nc4ccc5c(c4)CCNC5(C)C)ncc3c(=O)n2C2CC2)n1` [Compound No. 1.79, 2-cyclopropyl-6-((1,1-dimethyl-1,2,3,4-tetrahydroisoquinolin-6-yl)amino)-1-(6-(1-fluoro-2-methylpropan-2-yl)pyridin-2-yl)-1,2-dihydro-3H-pyrazolo[3,4-d]pyrimidin-3-one], the results for the IC50 in test [1] and in test [2] were 9 nM and 970 nM, respectively.

In the case of `CC(C)(C#N)c1cccc(-n2c3nc(Nc4ccc5c(c4)CNCC5)ncc3c(=O)n2CC(F)(F)F)n1` [Compound No. 1.32, 2-methyl-2-(6-(3-oxo-6-(1,2,3,4-tetrahydroisoquinolin-7-ylamino)-2-(2,2,2-trifluoroethyl)-2,3-dihydro-1H-pyrazolo[3,4-d]pyrimidin-1-yl)pyridin-2-yl)propanenitrile], the results for the IC50 in test [1] and in test [2] were 10 nM and 223 nM, respectively.

As for `CC(C)n1c(=O)c2cnc(Nc3ccc4c(c3)CCNC4)nc2n1-c1csc(N2CCOCC2)n1` [Compound No. 1.3, 2-isopropyl-1-(2-morpholinothiazol-4-yl)-6-((1,2,3,4-tetrahydroisoquinolin-6-yl)amino)-1,2-dihydro-3H-pyrazolo[3,4-d]pyrimidin-3-one], the IC50 in test [1] is 8 nM; in test [2], greater than 30000 nM.

Turning to `CC(C)(C)c1csc(-n2c3nc(Nc4ccc5c(c4)CNCC5)ncc3c(=O)n2CC(F)(F)F)n1` [Compound No. 1.12, 1-(4-(tert-butyl)thiazol-2-yl)-6-((1,2,3,4-tetrahydroisoquinolin-7-yl)amino)-2-(2,2,2-trifluoroethyl)-1,2-dihydro-3H-pyrazolo[3,4-d]pyrimidin-3-one], the IC50 in test [1] was 3 nM; in test [2], 2370 nM.

As to `CCn1c(=O)c2cnc(Nc3ccc4c(c3)CNCC4)nc2n1-c1cccc(C(C)(C)C#N)n1` [Compound No. 1.223, 2-(6-(2-ethyl-3-oxo-6-(1,2,3,4-tetrahydroisoquinolin-7-ylamino)-2,3-dihydro-1H-pyrazolo[3,4-d]pyrimidin-1-yl)pyridin-2-yl)-2-methylpropanenitrile], the IC50 was 7 nM in test [1] and 102 nM in test [2].

Regarding `CC(C)(C#N)c1cccc(-n2c3nc(Nc4ccc5c(c4)CCNC5(C)C)ncc3c(=O)n2CC(F)(F)F)n1` [Compound No. 1.33, 2-(6-(6-(1,1-dimethyl-1,2,3,4-tetrahydroisoquinolin-6-ylamino)-3-oxo-2-(2,2,2-trifluoroethyl)-2,3-dihydro-1H-pyrazolo[3,4-d]pyrimidin-1-yl)pyridin-2-yl)-2-methylpropanenitrile], the figures for the IC50 in test [1] and in test [2] were 5 nM and 513 nM, respectively.

For `O=c1c2cnc(Nc3ccc4c(c3)CCNC4)nc2n(-c2cccc(C3(CO)CC3)n2)n1CC(F)(F)F` [1.225, 1-(6-(1-(hydroxymethyl)cyclopropyl)pyridin-2-yl)-6-(1,2,3,4-tetrahydroisoquinolin-6-ylamino)-2-(2,2,2-trifluoroethyl)-1H-pyrazolo[3,4-d]pyrimidin-3(2H)-one], the results for the IC50 in test [1] and in test [2] were 1 nM and 375 nM, respectively.

As to `CC(C)n1c(=O)c2cnc(Nc3ccc4c(c3)CCNC4)nc2n1-c1nc(C(C)(C)C)cs1` [Compound No. 1.1, 1-(4-(tert-butyl)thiazol-2-yl)-2-isopropyl-6-((1,2,3,4-tetrahydroisoquinolin-6-yl)amino)-1,2-dihydro-3H-pyrazolo[3,4-d]pyrimidin-3-one], the values for the IC50 in test [1] and in test [2] were 4 nM and 530 nM, respectively.

Turning to `CC(C)n1c(=O)c2cnc(Nc3ccc4c(c3)CNCC4)nc2n1-c1csc(N2CCOCC2)n1` [Compound No. 1.7, 2-isopropyl-1-(2-morpholinothiazol-4-yl)-6-((1,2,3,4-tetrahydroisoquinolin-7-yl)amino)-1,2-dihydro-3H-pyrazolo[3,4-d]pyrimidin-3-one], the values for the IC50 in test [1] and in test [2] were 57 nM and greater than 30000 nM, respectively.

For the compound `CCn1c(=O)c2cnc(Nc3ccc4c(c3)CCNC4)nc2n1-c1nc(C(C)(C)C)cs1` [Compound No. 1.10, 1-(4-(tert-butyl)thiazol-2-yl)-2-ethyl-6-((1,2,3,4-tetrahydroisoquinolin-6-yl)amino)-1,2-dihydro-3H-pyrazolo[3,4-d]pyrimidin-3-one], the IC50 in test [1] is 7 nM; in test [2] it was 1490 nM.
